≈ marks a conversion by molar mass, not a printed value. Where two headings read alike, the source gives them in different places.
Assays:
[1] = test system: P. falciparum strain Thai19; test: Growth inhibition assay; type: cell-based; settings: Plasmodium falciparum
P. falciparum strain D10 = test: Growth inhibition assay; type: cell-based; settings: Plasmodium falciparum
P. falciparum strain Dd2 = test: Growth inhibition assay, asexual blood stages; type: cell-based, Plasmodium falciparum
P. falciparum strain K1 = test: microbe, parasite or virus in culture; type: cell-based; settings: Plasmodium falciparum
P. falciparum strain 3D7 = test: Growth inhibition assay; type: cell-based; settings: Plasmodium falciparum
P. falciparum strain 7G8 = test: microbe, parasite or virus in culture; type: cell-based; settings: Plasmodium falciparum
[2] = test system: P. falciparum strain FCR3; test: Growth inhibition assay; type: cell-based; settings: Plasmodium falciparum
[3] = test system: Dd2 P. falciparum parasites; test: In vitro parasite reduction ratio assay (Sanz protocol); type: cell-based, Plasmodium falciparum
Solubility in water = settings: for Solubility in H2O: Supplementary Table 2
Plasmodium vinckei = test: Rodent malaria model; type: in vivo; settings: P. vinckei
From the text: The two SC compounds were also active in the Plasmodium vinckei rodent malaria model system.

[4] = Plasmodium falciparum, DD2, strain Dd2, Supplementary Table 3
[5] = Supplementary Table 2, read-out: In vitro IC50
[6] = Supplementary Table 8, read-out: In vitro IC50

SMILES | IC50 [1] | IC50 (P. falciparum strain D10) | IC50 (P. falciparum strain K1) | IC50 (P. falciparum strain 3D7) | IC50 (P. falciparum strain 7G8) | IC50 [2] | IC50 (P. falciparum strain Dd2; [5]) | Solubility in H2O (Solubility in water) | also measured
CCN(CC)Cc1cc(Nc2ccnc3cc(Cl)ccc23)ccc1O [Amodiaquin] | 9 ± 1 nM | 7 ± 2 nM | 9 ± 1 nM | 8 ± 1 nM | 7 ± 2 nM | 8 ± 0.4 nM |  |  | IC50 (P. falciparum strain Dd2; [4]): 7 ± 1 nM
C[C@@H]1CC[C@H]2[C@@H](C)C(=O)O[C@@H]3O[C@@]4(C)CC[C@@H]1[C@]32OO4 [Artemisinin] | 3 ± 1 nM | 9 ± 0.4 nM | 3 ± 1 nM | 8 ± 0.3 nM | 1 ± 0.3 nM | 5 ± 1 nM |  |  | In vitro PCT99.9% ([3]; 10 times IC50, Dd2): 21 ± 3 h; In vitro lag phase ([3]; 10 times IC50, Dd2): zero; In vitro logPRR ([3]; 10 times IC50, Dd2, over 48 h): 4.5±2; IC50 (P. falciparum strain Dd2; [4]): 2 ± 0.1 nM
CCN(CC)CCCC(C)Nc1ccnc2cc(Cl)ccc12 (stereo not shown) [Chloroquine] | 74 ± 17 nM | 11 ± 30 nM | 70 ± 14 nM | 3 nM | 30 ± 70 nM | 25 ± 40 nM |  |  | 
OC(c1cc(C(F)(F)F)nc2c(C(F)(F)F)cccc12)C1CCCCN1 (stereo not shown) [Mefloquine] | 0.01 nM | 0.01 nM | 0.01 nM | 0.04 ± 0.1 nM | 0.2 ± 0.1 nM | 0.04 nM |  |  | IC50 (P. falciparum strain Dd2; [4]): 0.04 ± 0.1 nM
CCc1nc(N)nc(N)c1-c1ccc(Cl)cc1 [Pyrimethamine] | > 15000 nM | 11 ± 2 nM | > 15000 nM | 16 ± 3 nM | > 15000 nM | 31 ± 8 nM |  |  | 
C=C[C@H]1C[N@@]2CC[C@H]1C[C@@H]2[C@@H](O)c1ccnc2ccc(OC)cc12 [Quinidine] | 22 ± 5 nM | 16 ± 1 nM | 12 ± 3 nM | 14 ± 1 nM | 16 ± 4 nM | 32 ± 6 nM |  |  | IC50 (P. falciparum strain Dd2; [4]): 15 ± 1 nM
C=C[C@H]1C[N@@]2CC[C@H]1C[C@H]2[C@H](O)c1ccnc2ccc(OC)cc12 [Quinine] | 62 ± 10 nM | 58 ± 50 nM | 46 ± 40 nM | 14 ± 20 nM | 70 ± 17 nM | 182 ± 27 nM |  |  | IC50 (P. falciparum strain Dd2; [4]): 100 ± 10 nM
N=C(N)c1cccc(NC(=O)Nc2ccc(S(=O)(=O)c3ccc(Br)cc3)cc2)c1 [SC48443] |  |  |  |  |  |  | 63.9 nM | 100 µg/mL (≈ 211 µM) | 
N=C(c1cccc(NC(=O)Nc2ccc(S(=O)(=O)c3ccc(Br)cc3)cc2)c1)N1CCC(O)CC1 [SC77215] |  |  |  |  |  |  |  |  | Outcome: decrease of parasitemia (Plasmodium vinckei; 20 mg kg-1 i.p. 1x4 days): 45%; IC50 (P. falciparum strain Dd2; [6]): 68 nM
N=C(c1cccc(NC(=O)Nc2ccc(S(=O)(=O)NCc3ccc(S(N)(=O)=O)cc3)cc2)c1)N1CCN(CCO)CC1 [SC81452] |  |  |  |  |  |  | 100 nM | 32 µg/mL (≈ 52 µM) | 
N=C(c1cccc(NC(=O)Nc2ccc(S(=O)(=O)NCc3ccc(S(N)(=O)=O)cc3)cc2)c1)N1CCN(Cc2ccncc2)CC1 [SC82687] |  |  |  |  |  |  | 995 nM | 32 µg/mL (≈ 48.3 µM) | 
CCCCCN1CCN(C(=N)c2cccc(NC(=O)Nc3ccc(S(=O)(=O)NCc4ccc(S(N)(=O)=O)cc4)cc3)c2)CC1 [SC82833] |  |  |  |  |  |  | 13 nM | 100 µg/mL (≈ 156 µM) | 
CCN(CC)CCN(C)C(=N)c1cccc(NC(=O)Nc2ccc(S(=O)(=O)NCc3ccc(S(N)(=O)=O)cc3)cc2)c1 [SC82869] |  |  |  |  |  |  | 89 nM | 320 µg/mL (≈ 520 µM) | 
N=C(c1cccc(NC(=O)Nc2ccc(S(=O)(=O)NCc3ccc(S(N)(=O)=O)cc3)cc2)c1)N1CCNCC1 [SC82904] |  |  |  |  |  |  |  |  | Outcome (Plasmodium vinckei; 30 mg kg-1 i.p. 1x4 days): no complete clearance; Outcome: decrease of parasitemia (Plasmodium vinckei; 30 mg kg-1 i.p. 1x4 days): > 80%; IC50 (P. falciparum strain Dd2; [6]): 99 nM
CC(=O)N1CCN(C(=N)c2cccc(NC(=O)Nc3ccc(S(=O)(=O)NCc4ccc(S(N)(=O)=O)cc4)cc3)c2)CC1 [SC83287] |  |  |  |  |  |  | 5000 nM | 10 µg/mL (≈ 16.3 µM) | 
CCCCC(=O)N1CCN(C(=N)c2cccc(NC(=O)Nc3ccc(S(=O)(=O)NCc4ccc(S(N)(=O)=O)cc4)cc3)c2)CC1 [SC83290] |  |  |  |  |  |  | 40 nM | > 1000 µg/mL | Outcome (Plasmodium vinckei; 30 mg kg-1 i.p. 1x4 days): no complete clearance; Outcome: decrease of parasitemia (Plasmodium vinckei; 30 mg kg-1 i.p. 1x4 days): > 90%
N=C(N)c1cccc(NC(=O)Nc2cccc(C(=N)N)c2)c1 [amicarbalide, reference compound] |  |  |  |  |  |  |  |  | IC50 (P. falciparum strain Dd2; Plasmodium falciparum, DD2, read-out: In vitro IC50, Supplementary Table 2): 10 nM; solubility (Solubility in water; water): 100 µg/mL (≈ 337 µM)
